Reference: PubChem BioAssay (NCI)
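Dose response: 5 concentrations. Exposure: 48 h. Format: 96-well plates. Endpoint: linear interpolation; highest concentration if not reached. TGI: concentration producing complete growth inhibition.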

Assays:
Assay in all cases: NCI tumour cell line growth inhibition, 48 h
[1] = tested on: SNB-19 CNS
[2] = tested on: IGROV1 ovarian
[3] = tested on: SNB-75 CNS
[4] = tested on: HT29 colon
[5] = tested on: HS 578T breast
[6] = tested on: DU-145 prostate
[7] = tested on: NCI-H23 lung
[8] = tested on: MDA-MB-231 breast
[9] = tested on: SK-MEL-28 melanoma
[10] = tested on: M14 melanoma
[11] = tested on: SF-295 CNS
[12] = tested on: SW-620 colon
[13] = tested on: K-562 leukemia
[14] = tested on: ACHN renal
[15] = tested on: U251 CNS
[16] = tested on: SK-MEL-5 melanoma
[17] = tested on: UACC-257 melanoma
[18] = tested on: HOP-62 NSCLC
[19] = tested on: OVCAR-8 ovarian
[20] = tested on: OVCAR-5 ovarian
[21] = tested on: SN12C renal
[22] = tested on: EKVX NSCLC
[23] = tested on: SK-MEL-2 melanoma
[24] = tested on: NCI-H460 lung
[25] = tested on: RXF 393 renal
[26] = tested on: SF-268 CNS
[27] = tested on: PC-3 prostate
[28] = tested on: SF-539 CNS
[29] = tested on: LOX IMVI melanoma
[30] = tested on: OVCAR-4 ovarian
[31] = tested on: HCC-2998 colon
[32] = tested on: UACC-62 melanoma
[33] = tested on: A549 NSCLC
[34] = tested on: SR leukemia
[35] = tested on: COLO 205 colon
[36] = tested on: BT-549 breast
[37] = tested on: CAKI-1 renal
[38] = tested on: MOLT-4 leukemia
[39] = tested on: MCF7 breast
[40] = tested on: NCI-H522 lung
[41] = tested on: TK-10 renal
[42] = tested on: NCI/ADR-RES ovarian
[43] = tested on: HCT-15 colon
[44] = tested on: MALME-3M melanoma
[45] = tested on: HL-60(TB) leukemia
[46] = tested on: CCRF-CEM leukemia
[47] = tested on: KM12 colon
[48] = tested on: T-47D breast
[49] = tested on: MDA-MB-435
[50] = tested on: HCT-116 colon
[51] = tested on: MDA-N
[52] = tested on: 786-0 renal
[53] = tested on: NCI-H226 lung
[54] = tested on: UO-31 renal
[55] = tested on: OVCAR-3 ovarian
[56] = tested on: SK-OV-3 ovarian
[57] = tested on: RPMI-8226 leukemia
[58] = tested on: A498 renal

Measured: TGI

COC(=O)C(Cc1ccc(OC)cc1O)NC(=O)OC(C)(C)C (centres undefined)
95 µM: [17]
not listed: [57] | [58]
> 100 µM: all other assays above

C=C(C)c1cc(C(C)(C)C)cc(C(=C)C)c1S(C)(=O)=O
not listed: [17] | [25]
> 100 µM: all other assays above

Cc1nc2c(=O)[nH]ncc2[nH]1
not listed: [29] | [30] | [31] | [40] | [44] | [56]
> 100 µM: all other assays above
